From patent publication US5283236A, “Systemic delivery of polypeptides through the eye” (Orbon Corporation, priority 1992, dated 1994)
One block for each molecule: values may come before it.

Key:
[1] = Insulin absorption from eye drops with absorption enhancers (blood insulin); format: in vivo, New Zealand white female rabbits; details: eye drops: 1% insulin plus 1% absorption enhancer (Control: no enhancer)
[2] = tested on: normal rabbits; experiment: Blood glucose after insulin eye drops with absorption enhancers; format: in vivo, New Zealand white female rabbits; details: eye drops: 1% insulin plus 1% absorption enhancer (Control: no enhancer)
[3] = Penetration of insulin into eyeballs with absorption enhancers; format: in vivo, rabbits; details: 1% insulin plus 1% enhancer (Control: 1% insulin only)
[4] = rabbit, in vivo
Source text: The concentrations of peptides in the blood were expressed in ng/ml.

[5] = Blood enkephalin-equivalent concentration after ocular or i.v. enkephalin; format: in vivo, New Zealand white female rabbits; details: enkephalin 50 ug i.v.
[6] = Enkephalin-equivalent remaining in eye tissues at the end of 12 hr experiment; format: in vivo, New Zealand white female rabbits
[7] = tested on: normal rabbits; experiment: Blood glucose after ocular or i.v. glucagon in normal rabbits; format: in vivo, New Zealand white female rabbits; details: for blood glucose raised to: in 30 min

Molecule: C[N+](C)(C)CCCCCCCCCC[N+](C)(C)C [Decamethonium, decamethonium bromide]
Insulin peak Concentration [1]: 10.8 ± 1.8 ng/mL | % Change in Blood Glucose Concentration [2]: 8% | Blood Glucose Concentration Before [2]: 90 ± 3 mg %

Absolute amount of insulin in the eyeball [3]: 200 ng
Molecule: C[C@H](CCC(=O)NCC(=O)O)[C@H]1CC[C@H]2[C@@H]3[C@H](O)C[C@@H]4C[C@H](O)CC[C@]4(C)[C@H]3C[C@H](O)[C@]12C [Glycocholate, sodium glycocholate]

LHRH eye drop concentration sufficient to reach therapeutic effective blood concentration [4]: ≥ 0.005% | Tx of blood LHRH ([4]; iv): approximately 15 min
Molecule: CC(C)C[C@H](NC(=O)CNC(=O)[C@H](Cc1ccc(O)cc1)NC(=O)[C@H](CO)NC(=O)[C@H](Cc1c[nH]c2ccccc12)NC(=O)[C@H](Cc1cnc[nH]1)NC(=O)[C@@H]1CCC(=O)N1)C(=O)N[C@@H](CCCNC(=N)N)C(=O)N1CCC[C@H]1C(=O)NCC(N)=O [LHRH, luteinizing hormone-releasing hormone]

TRH eye drop concentration giving a therapeutic blood concentration [4]: ≥ 0.0025% | Tx of blood TRH ([4]; iv): approximately 10 min
Molecule: NC(=O)[C@@H]1CCCN1C(=O)[C@H](Cc1cnc[nH]1)NC(=O)[C@@H]1CCC(=O)N1 [TRH, Thyrotrophin-releasing hormone]

Molecule: CC(C)C[C@H](NC(=O)[C@H](Cc1ccccc1)NC(=O)CNC(=O)CNC(=O)[C@@H](N)Cc1ccc(O)cc1)C(=O)O [enkephalin, Leucine-enkephalin (5-L-leucine)]
Tx of decline of blood concentration [5]: less than 30 min | lowest blood concentration ([5]; in 5 hrs): 22 ng/mL | Residual amount of enkephalin remaining in tissues, % of instilled, Total ([6]; 1% enkephalin): 0.1713% | Residual amount of enkephalin remaining in tissues, Amount, Total ([6]; 1% enkephalin): 428.28 ng | Residual amount of enkephalin remaining in tissues, % of instilled, Total ([6]; 5% enkephalin): 0.1136% | Residual amount of enkephalin remaining in tissues, % of instilled, Total ([6]; […] enkephalin): 0.3019%

Molecule: Glucagon
blood glucose peak ([7]; 50 ug glucagon i.v., peaked at 30 min): 235 mg % | blood glucose raised to ([7]; 25 ul of 0.2% glucagon instilled): 204 mg % | blood glucose came down to ([7]; 25 ul of 0.2% glucagon instilled, in 2 hrs): 116 mg % | blood glucose raised to ([7]; 25 ul of 1% glucagon instilled): 248 mg % | blood glucose declined to ([7]; 25 ul of 5% glucagon instilled, end of 6 hr): 160 mg %

Molecule: polyoxyethylene-9-lauryl ether [BL-9]
% Change in Blood Glucose Concentration [2]: 42% | Blood Glucose Concentration After [2]: 56 mg % | Blood Glucose Concentration Before [2]: 97 mg %
